Experiments:
Caenorhabditis elegans [1] = assay: C. elegans L1 nematicidal dose response, 5 day visual viability score (3-fold dilutions); assay type: in vivo; set-up: key: Dead: only stiff L1s (no movement); Dead (L4): worms are dead, but at a later larval stage; majority of worms are L1 (based on size); majority of worms are L2 (based on size); majority of worms are L3 (based on size); majority of worms are L4 (based on size); AD: majority of worms are adult; #AD: 5 adult worms or less; B!: sterile (0-25 progeny); B: low broodsize (25-100 progeny); ˜B: moderate broodsize (100-250 progeny); <: reduced broodsize (250-500 progeny); OK: no effect (˜1000+ progeny); conditions: for 5 Day Visual Score V6: 0.3 μM; for 5 Day Visual Score V4: 2.6 μM; for 5 Day Visual Score V5: 0.9 μM; for 5 Day Visual Score V3: 7.8 μM; for 5 Day Visual Score V2: 23.3 μM; for 5 Day Visual Score V1: 70 μM
Description: Caenorhabditis elegans adults were grown on Nematode Growth Medium (NGM) until they produced eggs, then the adults were removed.
The eggs were allowed to hatch, and the L1 larvae collected. See The Nematode Caenorhabditis elegans (1988) Cold Spring Harbor Laboratory Press. Using a Matrix Programmable Pipette, the L1s were distributed into 96-well tissue culture plates, 20 L1 in 50 μl NGM per well. Antibiotic/Antimyotic was added to each well, and 1% by weight E. coli strain HB101. The subject anthelmintic compounds were stored at 5 mM in 100% DMSO. 0.7 μl of compounds 1-31 were added to the left-most column of wells to yield a final concentration of 70 μM in 1.4% DMSO, with 1.4% DMSO only as the control. The compounds were then subjected to 5 more 3-fold dilutions from left to right to yield 6 column concentrations of 70 μM, 23.3 μM, 7.8 μM, 2.6 μM, 0.9 μM, and 0.3 μM. Plates were stored in air-tight Rubbermaid plastic boxes at 20° C. The nematodes had cleared all control wells by day 4, and nematode viability was scored by visual examination under a 100× dissecting microscope on day 5. A visual viability scoring system was used as follows:
Column VI has a compound concentration of 70 μM with sequential 3-fold dilutions reported in columns V2, V3, V4, V5, and V6, respectively, such that the V6 concentration was 0.3 μM.
(§1) The nematicidal activity of anthelmintic Compositions 48-68 were determined in accordance with the procedure outlined in Example 2.

Caenorhabditis elegans [2] = assay: Follow-up HTS Run (mOD, % Run, visual score); set-up: key to Follow-up HTS Run Visual Score: Dead: only stiff L1s (no movement); Dead (L4): worms are dead, but at a later larval stage; majority of worms are L1 (based on size); majority of worms are L2 (based on size); majority of worms are L3 (based on size); majority of worms are L4 (based on size); AD: majority of worms are adult; #AD: 5 adult worms or less; B!: sterile (0-25 progeny); B: low broodsize (25-100 progeny); ˜B: moderate broodsize (100-250 progeny); <: reduced broodsize (250-500 progeny); OK: no effect (˜1000+ progeny); conditions: in vivo
Description: as §1

Caenorhabditis elegans [3] = assay: Initial HTS Run (mOD, % Run, visual score); set-up: key to Initial HTS Run Visual Score: Dead: only stiff L1s (no movement); Dead (L4): worms are dead, but at a later larval stage; majority of worms are L1 (based on size); majority of worms are L2 (based on size); majority of worms are L3 (based on size); majority of worms are L4 (based on size); AD: majority of worms are adult; #AD: 5 adult worms or less; B!: sterile (0-25 progeny); B: low broodsize (25-100 progeny); ˜B: moderate broodsize (100-250 progeny); <: reduced broodsize (250-500 progeny); OK: no effect (˜1000+ progeny); conditions: in vivo
Description: as §1

[4] = system: root-knot nematode, Meloidogyne incognita; conditions: in vivo; cited from earlier work
[5] = Table 3, procedure of Example 2

SMILES | 5 Day Visual Score V6 (Caenorhabditis elegans [1]; scored day 5) | 5 Day Visual Score V4 (Caenorhabditis elegans [1]; scored day 5) | 5 Day Visual Score V5 (Caenorhabditis elegans [1]; scored day 5) | 5 Day Visual Score V3 (Caenorhabditis elegans [1]; scored day 5) | 5 Day Visual Score V2 (Caenorhabditis elegans [1]; scored day 5) | 5 Day Visual Score V1 (Caenorhabditis elegans [1]; scored day 5) | Follow-up HTS Run % Run (Caenorhabditis elegans [2]) | Follow-up HTS Run mOD (Caenorhabditis elegans [2]) | 5 Day Visual Score V6 (Caenorhabditis elegans [1]; [5]) | 5 Day Visual Score V5 (Caenorhabditis elegans [1]; [5]) | 5 Day Visual Score V4 (Caenorhabditis elegans [1]; [5]) | 5 Day Visual Score V3 (Caenorhabditis elegans [1]; [5]) | 5 Day Visual Score V2 (Caenorhabditis elegans [1]; [5]) | Initial HTS Run % Run (Caenorhabditis elegans [3]) | Initial HTS Run mOD (Caenorhabditis elegans [3]) | Follow-up HTS Run Visual Score (Caenorhabditis elegans [2]) | 5 Day Visual Score V1 (Caenorhabditis elegans [1]; [5]) | Initial HTS Run Visual Score (Caenorhabditis elegans [3]) | activity against the root-knot nematode [4]
CCCCOc1ccc(C(=O)N2CC(OCCCc3ccccc3)CC2C(=O)NCc2ccccc2OC)cc1 (centres unmarked) [AKC 126] | #AD/˜B | #AD/˜B | – | – | – | – | – | – | – | – | – | – | – | – | – | – | – | – | –
Cc1ccc(C(CC(=O)c2ccccc2)Nc2ccc(I)cc2)o1 (centres unmarked) [AKC 128] | OK (no effect (˜1000+ progeny)) | L1 | #AD/˜B | Dead | Dead | Dead | – | – | – | – | – | – | – | – | – | – | – | – | –
Cc1ccc(C(CC(=O)c2ccccc2)Nc2ccc(I)cc2F)o1 (centres unmarked) [AKC 129] | – | – | OK (no effect (˜1000+ progeny)) | – | Dead | Dead | – | – | – | – | – | – | – | – | – | – | – | – | –
CCC(=O)C(C)C(Nc1cc(Br)c(C)c(Br)c1)c1ccc(C)o1 (centres unmarked) [AKC 131] | – | #AD/˜B | #AD/˜B | #AD/˜B | L1 | Dead | – | – | – | – | – | – | – | – | – | – | – | – | –
CCCc1ccc(C(Nc2ccc(-c3ccccc3)cc2)C2CCCCC2=O)cc1 (centres unmarked) [AKC 132] | Dead | – | – | Dead | Dead | Dead(L2) | – | – | – | – | – | – | – | – | – | – | – | – | –
Fc1ccc(N2CCN(c3nc(NCc4ccc(C(F)(F)F)cc4)ns3)CC2)cc1 [AKC 135] | – | – | – | – | L1 | Dead | – | – | – | – | – | – | – | – | – | – | – | – | –
CC(C)(C)c1csc(NC(=O)Cc2cn(Cc3ccccc3Cl)c3ccc(Cl)cc23)n1 [AKC 157] | – | – | – | – | – | – | 108% | 174 mOD | OK (no effect (˜1000+ progeny)) | OK (no effect (˜1000+ progeny)) | < (reduced broodsize (250-500 progeny)) | < (reduced broodsize (250-500 progeny)) | OK (no effect (˜1000+ progeny)) | 98% | 120 mOD | – | – | – | –
CC(C)(C)c1csc(NC(=O)Cc2cn(Cc3cccnc3)c3ccc(Cl)cc23)n1 [AKC 162] | – | – | – | – | – | – | 111% | 179 mOD | OK (no effect (˜1000+ progeny)) | OK (no effect (˜1000+ progeny)) | OK (no effect (˜1000+ progeny)) | OK (no effect (˜1000+ progeny)) | OK (no effect (˜1000+ progeny)) | 111% | 136 mOD | B (low broodsize (25-100 progeny)) | < (reduced broodsize (250-500 progeny)) | L2/L3/1AD/B! | –
CC(=O)Nc1ccc(S(=O)(=O)N2CCN(C(=O)c3cc(C(F)(F)F)cc(C(F)(F)F)c3)CC2C(=O)NCc2ccccc2)cc1 (centres unmarked) [AKC 163] | – | – | – | – | – | – | 136% | 219 mOD | OK (no effect (˜1000+ progeny)) | OK (no effect (˜1000+ progeny)) | OK (no effect (˜1000+ progeny)) | OK (no effect (˜1000+ progeny)) | < (reduced broodsize (250-500 progeny)) | 119% | 146 mOD | – | – | L2/L3(DEAD) | –
CCCCCCCCS(=O)(=O)N1CCN(C(=O)c2cc(C(F)(F)F)cc(C(F)(F)F)c2)CC1C(=O)NCc1ccccc1 (centres unmarked) [AKC 165] | – | – | – | – | – | – | 126% | 203 mOD | OK (no effect (˜1000+ progeny)) | OK (no effect (˜1000+ progeny)) | OK (no effect (˜1000+ progeny)) | < (reduced broodsize (250-500 progeny)) | – | 115% | 142 mOD | Dead | – | – | –
COc1ccc(CC(=O)N2CCN(S(=O)(=O)c3ccc(OC)c(OC)c3)C(C(=O)NCc3cc(C(F)(F)F)cc(C(F)(F)F)c3)C2)cc1OC (centres unmarked) [AKC 168] | – | – | – | – | – | – | 135% | 217 mOD | OK (no effect (˜1000+ progeny)) | OK (no effect (˜1000+ progeny)) | OK (no effect (˜1000+ progeny)) | OK (no effect (˜1000+ progeny)) | OK (no effect (˜1000+ progeny)) | 90% | 111 mOD | 3AD/˜B | L3/#AD/B! | 5AD/B | –
Cc1cccc2scc(CC(=O)Nc3nc(C(C)(C)C)cs3)c12 [AKC 170] | – | – | – | – | – | – | 139% | 223 mOD | OK (no effect (˜1000+ progeny)) | OK (no effect (˜1000+ progeny)) | OK (no effect (˜1000+ progeny)) | OK (no effect (˜1000+ progeny)) | #AD/ | 111% | 136 mOD | L4/AD/B! | L2 | L3 | –
CCCCCCCCS(=O)(=O)N1CCN(C(=O)C=Cc2cccc(C(F)(F)F)c2)CC1C(=O)NCc1ccc(C(F)(F)F)cc1 (centres unmarked) [AKC 171] | – | – | – | Dead(L4)/#A | L2 | Dead | 111% | 179 mOD | – | – | – | Dead | L2 | 101% | 124 mOD | Dead | Dead | – | –
CCCCCCCCS(=O)(=O)N1CCN(C(=O)C=Cc2cccc(C(F)(F)F)c2)CC1C(=O)NCc1ccccc1C(F)(F)F (centres unmarked) [AKC 173] | – | – | – | – | – | – | 107% | 172 mOD | OK (no effect (˜1000+ progeny)) | OK (no effect (˜1000+ progeny)) | OK (no effect (˜1000+ progeny)) | OK (no effect (˜1000+ progeny)) | – | 98% | 120 mOD | – | – | – | –
CC(C)(C)c1csc(NC(=O)CC2CCCc3ccccc32)n1 (centres unmarked) [AKC 175] | – | – | – | – | – | – | 99% | 159 mOD | OK (no effect (˜1000+ progeny)) | OK (no effect (˜1000+ progeny)) | OK (no effect (˜1000+ progeny)) | OK (no effect (˜1000+ progeny)) | OK (no effect (˜1000+ progeny)) | 85% | 104 mOD | L4/AD/B! | < (reduced broodsize (250-500 progeny)) | L4/AD/B | –
CCC1CCCCN1c1cc(Oc2ccc3oc4ccccc4c3c2)ncn1 (centres unmarked) [AKC 340] | – | – | – | – | L1 | L1 | – | – | – | – | – | – | – | – | – | – | – | – | –
O=C(NCCc1ccccc1F)C1C(c2ccc(F)cc2)=NOC1c1ccc(-c2ccccc2)cc1 (centres unmarked) [AKC 2153] | – | – | – | – | L1 | L1 | – | – | – | – | – | – | – | – | – | – | – | – | –
CC[C@H](C)[C@H]1O[C@]2(CC(O)[C@@H]1C)C[C@@H]1C[C@@H](C/C=C(\C)[C@@H](OC3CC(OC)C(OC4CC(OC)C(O)C(C)O4)C(C)O3)[C@@H](C)/C=C/C=C3\CO[C@@H]4[C@H](O)C(C)=C[C@@H](C(=O)O1)[C@]34O)O2 (some centres unmarked) [Avermectin B2a] | – | – | – | – | – | – | – | – | – | – | – | – | – | – | – | – | – | – | active

Reference: patent US20020016330A1, “Materials and methods for killing nematodes and nematode eggs” (priority 2000, published 2002)
